Columns and labels:
Format in all cases: in vivo, human
[1] = test system: patients presenting with chronic obstructive pulmonary disease; assay: Pulmonary function during moderate sub-maximum step exercise, COPD patients; details: for VD/VT: post ribose five grams four times a day; for VD/VT / VT/RR / VCO2 / VTBTPS (tidal volume) / VT/ti (inspiratory drive): eight weeks; for VT/RR / VCO2 / VTBTPS (tidal volume) / VT/ti (inspiratory drive): post ribose
Protocol: Four patients presenting with chronic obstructive pulmonary disease were tested for various parameters of pulmonary function as described in Example 1. Baseline measurements of pulmonary function were taken during moderate, sub-maximum step exercise. Patients were instructed to self-administer five grams of ribose four times a day. After eight weeks, pulmonary function was again measured during moderate exercise. In Table II, the units are: • VD=volume of the dead space; VT=tidal volume in liters per minute. The ratio VD/VT can be expressed as ml/ml. This ratio is taken at the nadir of sub-maximal exercise and is a measure of lung function. • VT=tidal volume in liters; RR=breaths per minute • VT=volume in ml at each inspiration, ti=inspiratory time. VT/ti is the inspiratory drive (effort) in ml/second. • VT=tidal volume in liters at constant body temperature pressure status. • VCO2=liters/minute of expired CO2 • RR=breaths per minute. VT/RR=tidal volume in liters per breath.

[2] = test system: representative patients (coronary artery disease / CHF cohort); assay: Exercise testing of representative individual patients (treadmill, step test, drug-driven simulated exercise)
Protocol: Patients were tested on a treadmill with varying grade, on a step apparatus or with simulated drug-driven exercise simulation for those patients unable to exercise physically. VCO2 and VO2max before and after exercise was measured and VE calculated. The methodology is described in Circulation: www.circulationaha.org Ponikowski et al. Ventilation in Chronic Heart Failure, Feb. 20, 2001, the teachings of which are incorporated by reference. Ventilatory efficiency, VO2 and O2 pulse were assessed up to the anaerobic threshold at baseline and again at eight weeks. Weber function class was also determined based on VO2 at the anaerobic threshold (AT). The results for the first group of test patients (2 females and 13 males) are summarized in Table I. “R” designates D-ribose. Each patient acted as his or her control, that is, results after ribose administration were compared to baseline results. VO2 efficiency is the O2 uptake per unit time. O2 pulse is a measurement of the heart stroke volume. A person, normal weight, was diagnosed with blockage of the coronary arteries with stable angina, not yet progressing to congestive heart failure. […] Using a treadmill, with incremental increase in grade, their VO2 max and VCO2 were determined. Following eight weeks of ribose administration of five grams four times a day, they were retested under the same conditions. Plotting a regression analysis of VO2 versus log V, the VE slope decreased from 60.2 to 45.5. It is considered that a slope of 36.9 or below indicates impairment of ventilatory efficiency. Therefore, while this patient was not in the normal range of ventilatory efficiency, improvement was marked. A second patient, a person of normal weight, self administered five grams of ribose four times a day for eight weeks. At the beginning of the study, their VE slope was 55.7 following nine minutes of submaximal exercise. At the end of the study, their VE slope had decreased to 45.2. This patient also was tested on the step test. The initial test was rated as “good” and the second test was subjectively considered to be “great.” A third patient, an obese person, was on nasal oxygen and was tested with drug-driven simulated exercise. […] Although their VE was now in the normal range, the test results, although improved were not subjectively rated as “good”.

[3] = test system: patient with rheumatoid lung; assay: Ventilatory efficiency in rheumatoid lung, case report; details: person, ribose approximately five grams two to three times a day, within a month
Text: A person developed rheumatoid arthritis in the 1970's. By 1988, they began to show symptoms of rheumatoid lung, began the use of rescue inhalers such as Albuterol® inhaler and was hospitalized for respiratory distress three times in the next five years. At that point, they were prescribed Advair® steroid inhaler, which relieved their symptoms considerably, although they still required a rescue inhaler several times per week. In 2002, they began the administration of ribose, approximately five grams two to three times a day.

[4] = test system: patient at risk for COPD (No COPD); assay: Pulmonary function during moderate sub-maximum step exercise, patient without COPD; details: Patient 5, No COPD, post ribose
Protocol: Four patients presenting with chronic obstructive pulmonary disease were tested for various parameters of pulmonary function as described in Example 1. Baseline measurements of pulmonary function were taken during moderate, sub-maximum step exercise. Patients were instructed to self-administer five grams of ribose four times a day. After eight weeks, pulmonary function was again measured during moderate exercise.
In Table II, the units are: • VD=volume of the dead space; VT=tidal volume in liters per minute. The ratio VD/VT can be expressed as ml/ml. This ratio is taken at the nadir of sub-maximal exercise and is a measure of lung function. • VT=tidal volume in liters; RR=breaths per minute • VT=volume in ml at each inspiration, ti=inspiratory time. VT/ti is the inspiratory drive (effort) in ml/second. • VT=tidal volume in liters at constant body temperature pressure status. • VCO2=liters/minute of expired CO2 • RR=breaths per minute. VT/RR=tidal volume in liters per breath.
Table II illustrates that no one measurement or ratio is predictive of the clinical state of COPD and response to ribose administration. […] One goal of this study was to determine whether the progression of pulmonary dysfunction in such a patient could be slowed or halted over time.

patients having CHF = assay: Ventilatory efficiency during cardiopulmonary exercise testing, CHF patients
Protocol: Ventilatory efficiency has been critically shown to be the most powerful, independent predictor of CHF patient survival. Ventilatory efficiency (VE) is determined by the linear, submax relationship between Minute Ventilation (V) and carbon dioxide output (VCO2), V being on the “y axis” and the linear slope being determined using the linear regression model, y=a+bx, “b” representing the slope. The steeper the slope, the worse the ventilation efficiency of the patient. As an exemplar cohort of patients with reduced ventilatory efficiency, patients suffering from CHF were recruited. Patients having CHF were selected according to the following criteria: • Male and female 48-84 years of age. • Ejection fraction 30-72% • NY Class III-IV (severe condition). • Test and control groups matched for pre-operative volume status, cardiac medication, measured risk assessment. The test group was administered D-ribose, 15 grams tid for eight weeks; the controls received 15 grams Dextrose tid. All patients in this group underwent repeated cardiopulmonary exercise using a four-minute sub-maximal step protocol. Patients were tested on a step apparatus. Others in the study were tested on a treadmill with varied grade or on drug-driven exercise simulation for those patients unable to use the other two devices. Symptom-limited peak exercise performance with at least 80-85% of age related maximal heart rate was attempted with each patient. Upper extremity blood pressure was obtained at every two minutes and also at peak exercise. Patients were tested on a treadmill with varying grade, on a step apparatus or with simulated drug-driven exercise simulation for those patients unable to exercise physically. VCO2 and VO2max before and after exercise was measured and VE calculated. The methodology is described in Circulation: www.circulationaha.org Ponikowski et al. Ventilation in Chronic Heart Failure, Feb. 20, 2001, the teachings of which are incorporated by reference. Ventilatory efficiency, VO2 and O2 pulse were assessed up to the anaerobic threshold at baseline and again at eight weeks. Weber function class was also determined based on VO2 at the anaerobic threshold (AT). The results for the first group of test patients (2 females and 13 males) are summarized in Table I. “R” designates D-ribose. Each patient acted as his or her control, that is, results after ribose administration were compared to baseline results. VO2 efficiency is the O2 uptake per unit time. O2 pulse is a measurement of the heart stroke volume.

[5] = FIG. 2, single patient, after eight weeks of ribose supplementation, during exercise

Compound: O=C[C@H](O)[C@H](O)[C@H](O)CO [D-ribose]
- slope of respiratory rate plotted against tidal volume ([1]; FIG. 1, single patient, after eight weeks of ribose supplementation): decreased slope
- VE value [1, 5]: 42 L/min
- tidal volume [1, 5]: 0.9 L
- VD/VT ([1]; Patient 1 (asthmatic with COPD), nadir of sub-maximal exercise, baseline 0.304): 0.253 ml/ml
- VT/RR ([1]; Patient 1, baseline 0.059): 0.065 liters per breath
- VCO2 ([1]; Patient 1, baseline 1.038): 1.050 L/min
- VTBTPS (tidal volume) ([1]; Patient 1, baseline 1.54): 1.92 L
- VT/ti (inspiratory drive) ([1]; Patient 1, baseline 1492): 1827 mL/s
- VD/VT ([1]; Patient 2 (COPD), baseline 0.439): 0.303 ml/ml
- VT/RR ([1]; Patient 2, baseline 0.036): 0056 liters per breath
- VCO2 ([1]; Patient 2, baseline 0.460): 0.460 L/min
- VTBTPS (tidal volume) ([1]; Patient 2, baseline 0.830): 1.04 L
- VT/ti (inspiratory drive) ([1]; Patient 2, baseline 779): 752 mL/s
- VD/VT ([1]; Patient 3 (COPD), baseline 0.198): 0.221 ml/ml
- VT/RR ([1]; Patient 3, baseline 0.041): 0.046 liters per breath
- VCO2 ([1]; Patient 3, baseline 0.280): 0.454 L/min
- VTBTPS (tidal volume) ([1]; Patient 3, baseline 0.614): 0.873 L
- VT/ti (inspiratory drive) ([1]; Patient 3, baseline 373): 706 mL/s
- VD/VT ([1]; Patient 4 (COPD), baseline 0.475): 0.280 ml/ml
- VT/RR ([1]; Patient 4, baseline 0.013): 0.018 liters per breath
- VCO2 ([1]; Patient 4, baseline 0.310): 0.814 L/min
- VTBTPS (tidal volume) ([1]; Patient 4, baseline 0.550): 0.800 L
- VT/ti (inspiratory drive) ([1]; Patient 4, baseline 937): 1590 mL/s
- VE slope ([2]; obese person on nasal oxygen, drug-driven simulated exercise, ribose five grams four times daily, eight weeks, baseline 63.0): 35.2
- need for nasal oxygen ([2]; obese person, ribose five grams four times daily, eight weeks): able to discontinue the oxygen
- time of simulated exercise ([2]; obese person, ribose five grams four times daily, eight weeks, baseline 7.43 minutes): 11.44 min
- VE slope ([2]; person, coronary artery blockage with stable angina, treadmill, ribose five grams four times a day, eight weeks, baseline 60.2): 45.5
- VE slope ([2]; person, nine minutes of submaximal exercise, ribose five grams four times a day, eight weeks, baseline 55.7): 45.2
- step test subjective rating ([2]; person, second test after eight weeks of ribose, initial test rated good): great
- use of rescue inhaler and exercise tolerance [3]: able to discontinue the use of the rescue inhaler and to exercise more without breathlessness symptoms
- VT/RR ([4]; baseline 0.090): 0.100 liters per breath
- VD/VT ([4]; baseline 0.212): 0.221 ml/ml
- VCO2 ([4]; baseline 0.990): 1.26 L/min
- VTBTPS (tidal volume) ([4]; baseline 1.90): 2.40 L
- VT/ti (inspiratory drive) ([4]; baseline 1636): 2232 mL/s
- VO2 uptake efficiency (patients having CHF; Post-R: D-ribose 15 grams tid for eight weeks, 2 females and 13 males, Pre-R 1.00 +/− 0.28, p < 0.028): 1.30 +/− 0.28
- O2 pulse (patients having CHF; Post-R: D-ribose 15 grams tid for eight weeks, 2 females and 13 males, Pre-R 7.45 +/− 1.8, p < 0.05): 9.04 +/− 1.9
- Ventilatory efficiency (patients having CHF; Post-R: D-ribose 15 grams tid for eight weeks, 2 females and 13 males, up to anaerobic threshold, Pre-R 50.6 +/− 9.8, p < 0.01): 41.6 +/− 6.4
- improvement of VE (patients having CHF; after eight weeks of D-ribose versus baseline): about 20%
- Weber functional class (patients having CHF; based on VO2 at the anaerobic threshold, several of the patients, after eight weeks): reclassified into a higher, that is, less severe, Weber functional class

Source: patent US20100099630A1, “Method for improving ventilatory efficiency” (priority 2004, published 2010)
